Literature values as cited in patent publication US20040126415A1, “Dermal delivery of a water-soluble selective cyclooxygenase-2 inhibitor” (priority 2002, published 2004).

Assays:
[1] = biological target: COX-1 (Homo sapiens, UniProt P23219)
[2] = biological target: T1, COX-2 (Homo sapiens, UniProt P35354)
T1 sequence (P35354 18-604): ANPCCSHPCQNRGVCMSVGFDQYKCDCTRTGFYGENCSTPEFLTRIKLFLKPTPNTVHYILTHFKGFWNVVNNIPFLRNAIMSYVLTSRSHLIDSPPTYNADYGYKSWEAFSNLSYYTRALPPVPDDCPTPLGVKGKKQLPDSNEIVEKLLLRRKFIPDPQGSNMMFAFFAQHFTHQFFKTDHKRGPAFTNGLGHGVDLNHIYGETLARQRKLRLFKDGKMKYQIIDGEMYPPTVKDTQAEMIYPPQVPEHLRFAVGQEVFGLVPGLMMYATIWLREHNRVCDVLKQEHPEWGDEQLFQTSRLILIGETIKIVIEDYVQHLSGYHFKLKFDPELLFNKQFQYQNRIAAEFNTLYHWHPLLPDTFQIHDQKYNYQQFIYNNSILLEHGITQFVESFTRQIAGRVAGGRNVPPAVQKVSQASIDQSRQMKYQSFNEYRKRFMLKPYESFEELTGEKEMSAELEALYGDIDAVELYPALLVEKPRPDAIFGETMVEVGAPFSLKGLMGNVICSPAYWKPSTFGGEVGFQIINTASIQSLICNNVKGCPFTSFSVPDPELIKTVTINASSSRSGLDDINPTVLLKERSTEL

COX-1, sequence (P23219 24-599): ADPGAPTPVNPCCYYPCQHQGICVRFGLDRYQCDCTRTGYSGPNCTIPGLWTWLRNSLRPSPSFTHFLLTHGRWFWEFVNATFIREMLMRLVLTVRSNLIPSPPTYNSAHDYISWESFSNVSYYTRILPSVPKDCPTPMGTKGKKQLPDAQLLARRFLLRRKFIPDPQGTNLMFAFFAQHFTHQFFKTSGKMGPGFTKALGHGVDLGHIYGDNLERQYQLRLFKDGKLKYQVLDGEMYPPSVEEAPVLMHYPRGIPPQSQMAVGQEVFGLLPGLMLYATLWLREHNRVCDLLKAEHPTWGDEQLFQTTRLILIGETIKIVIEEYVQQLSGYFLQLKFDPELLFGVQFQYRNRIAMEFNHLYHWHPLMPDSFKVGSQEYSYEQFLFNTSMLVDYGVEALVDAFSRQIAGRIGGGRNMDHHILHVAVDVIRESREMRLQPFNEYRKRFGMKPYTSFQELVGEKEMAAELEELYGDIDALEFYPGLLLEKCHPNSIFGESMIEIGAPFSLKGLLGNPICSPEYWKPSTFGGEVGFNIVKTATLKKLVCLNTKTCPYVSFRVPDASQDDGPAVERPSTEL

SMILES | in vitro inhibitory activity against COX-1 [1] | in vitro inhibitory activity against COX-2 [2]
Cc1onc(-c2ccccc2)c1-c1ccc(S(N)(=O)=O)cc1 [valdecoxib, 4-[5-methyl-3-phenylisoxazol-4-yl]benzenesulfonamide] | weak inhibitor | 
CCC(=O)NS(=O)(=O)c1ccc(-c2c(-c3ccccc3)noc2C)cc1 [Parecoxib, N-[[4-(5-methyl-3-phenylisoxazol-4-yl)phenyl]sulfonyl]propanamide] | weak in vitro inhibitory activity | weak in vitro inhibitory activity
